Structures are written as SMILES. Where two headings read alike, the source gives them in different places.

Data set [1] can be described thus: hygroscopicity of crystalline forms of omeprazole sodium. Format: physicochemical. Conditions: forms obtained by the processes of the invention.
For data set [2] the following is noted: Form-A prepared according to Example 3 of WO99/00380, dried substance with one strongly bound water molecule, normal conditions; cited from earlier work.
For data set [3] the following is noted: cited from earlier work; for physical stability: forms disclosed in WO 99/00380.
Data set [4] can be described thus: stability of crystalline forms of omeprazole sodium.

Turning to `COc1ccc2[n-]c([S+]([O-])Cc3ncc(C)c(OC)c3C)nc2c1.[Na+]` (stereo not drawn) [Form C, omeprazole sodium], the hygroscopicity entry in data set [1] is on record as “less hygroscopic than Form A”.
For `COc1ccc2[n-]c([S+]([O-])Cc3ncc(C)c(OC)c3C)nc2c1.[Na+]` (stereo not drawn) [Form D, omeprazole sodium], in data set [1], the hygroscopicity entry is on record as “non-hygroscopic”.
Take `COc1ccc2[n-]c([S+]([O-])Cc3ncc(C)c(OC)c3C)nc2c1.[Na+]` (stereo not drawn) [Form-A, omeprazole sodium]: the hygroscopicity entry was “non-hydroscopic” in data set [1] and “very hygroscopic” in data set [2]. The thermodynamic stability entry is reported as “thermodynamically unstable” in data set [3] (Form-A produced according to Example 3 of WO 99/00380) and “thermodynamically more stable” in data set [4] (Form-A obtained by the process of the invention, compared with prior art processes). Moreover, the “stability (kind not specified)” value in data set [4] (forms obtained by the processes of the invention) is given as “stable”.
Consider `COc1ccc2[n-]c([S+]([O-])Cc3ncc(C)c(OC)c3C)nc2c1.[Na+]` (stereo not drawn) [Form-X, omeprazole sodium], for which the physical stability result in data set [3] was “physically unstable”.
Take `COc1ccc2[n-]c([S+]([O-])Cc3ncc(C)c(OC)c3C)nc2c1.[Na+]` (stereo not drawn) [Form-B, omeprazole sodium]: the physical stability result in data set [3] is on record as “physically stable”.

The values above are taken from patent US20040224987A1, “Crystalline form C of omeprazole sodium and the related process of its preparation, a crystalline form D of omeprazole sodium and the related process of its preparation, and a process for preparation of crystalline form a of omeprazole sodium” (DR. REDDY'S LABORATORIES LIMITED, priority 2003, published 2004).
